Drawing on US6335339B1, “Triazine antiviral compounds” (Scriptgen Pharmaceuticals, Inc., priority 1998, dated 2002), this text covers CC50 for 27 molecules.

In the series the test system is 2.2.15 cells. In words: neutral red dye uptake cytotoxicity. Particulars: 9 days treatment, read-out: 50% Cell Death CC50. The class given is cell-based. The method, boiled down:
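Confluent 2.2.15 cultures, same conditions as antiviral assay, treated daily for 9 days with 4 concentrations (3.3-fold dilutions), triplicate wells. 24 hours after the final dose, cells stained 30 minutes with 0.01% neutral red, dye extracted and A510 read; values as % of untreated cultures, CC50 as 50% cell death.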

A value given as a limit tells only on which side of the number the result lay.

Regarding `C(=NNc1nc(Nc2ccccc2)nc(N2CCCCC2)n1)c1ccccc1` [Compound 3], the CC50 (as a rule, the concentration that lowers cell viability or growth by half) is above 100 µM.

In the case of `Cc1[nH]c2ccccc2c1C=NNc1nc(Nc2ccccc2)nc(N2CCOCC2)n1` [Compound 4], the CC50 was 3.7 µM.

In the case of `FC(F)(F)c1cccc(Nc2nc(Nc3cccc(Br)c3)nc(N3CCOCC3)n2)c1` [Compound 38], the CC50 stood at 125 µM.

Regarding `CCCCN(CCCC)c1nc(NN=Cc2c[nH]c3ccccc23)nc(Nc2ccc([N+](=O)[O-])cc2)n1` [Compound 39], the CC50 worked out at 5.3 µM.

On to `Cc1ccc(Nc2nc(NN=Cc3ccc(Cl)c(Cl)c3)nc(Nc3ccccc3)n2)c(C)c1` [Compound 40], for which the CC50 is 136 µM.

Regarding `O=[N+]([O-])c1ccc(Nc2nc(N/N=C/c3cccc(Cl)c3)nc(N3CCCCC3)n2)cc1` [Compound 41], the CC50 was above 300 µM.

On to `Cc1ccc(Nc2nc(NN=Cc3ccc(Cl)cc3)nc(Nc3ccccc3)n2)c(C)c1` [Compound 42], for which the CC50 is 237 µM.

On to `Brc1cc2c(cc1C=NNc1nc(NCc3ccccc3)nc(Nc3ccccc3)n1)OCO2` [Compound 43], for which the CC50 is 87 µM.

For the molecule `COc1ccc(C=NNc2nc(Nc3ccc([N+](=O)[O-])cc3)nc(N3CCCCC3)n2)cc1` [Compound 44], the CC50 turned out to be 285 µM.

On to `O=[N+]([O-])c1ccc(C=NNc2nc(Nc3ccccc3)nc(NC3CCCCC3)n2)cc1` [Compound 46], for which the CC50 is above 100 µM.

With `Cc1ccc(Nc2nc(NN=Cc3cccc(Br)c3)nc(Nc3ccccc3)n2)c(C)c1` [Compound 49], the CC50 was 140 µM.

Turning to `Cc1[nH]c2ccccc2c1C=NNc1nc(NCc2ccccc2)nc(Nc2ccccc2)n1` [Compound 50], the CC50 came to 30 µM.

In the case of `Cc1ccc(Nc2nc(NN=Cc3ccc4c(c3)OCO4)nc(Nc3ccccc3)n2)c(C)c1` [Compound 51], the CC50 stood at 130 µM.

`O=[N+]([O-])c1cc(C=NNc2nc(Nc3ccccc3)nc(N3CCOCC3)n2)ccc1Cl` [Compound 52]: the CC50 came to 11 µM.

For the molecule `Oc1ccc(Nc2nc(Nc3cccc(C(F)(F)F)c3)nc(N3CCOCC3)n2)cc1` [Compound 53], the CC50 was found to be 72 µM.

Consider `CC(C)c1ccc(C=NNc2nc(Nc3ccc([N+](=O)[O-])cc3)nc(N3CCCCCC3)n2)cc1` [Compound 56], for which the CC50 is 63 µM.

`COc1ccc(C=NNc2nc(Nc3ccccc3)nc(Nc3ccc(C)cc3C)n2)c(OC)c1` [Compound 61]: the CC50 is 1.3 µM.

For the molecule `CC(C)c1ccc(C=NNc2nc(Nc3ccc([N+](=O)[O-])cc3)nc(N3CCCCC3)n2)cc1` [Compound 62], the CC50 was above 100 µM.

In the case of `CCN(CC)c1nc(N/N=C/c2ccc([N+](=O)[O-])cc2)nc(Nc2cc(C)ccc2C)n1` [Compound 63], the CC50 is above 100 µM.

Regarding `CNc1nc(NN=Cc2ccccc2[N+](=O)[O-])nc(Nc2ccccc2)n1` [Compound 65], the CC50 is 17 µM.

Regarding `CC(C)(C)Nc1nc(NCc2ccccc2)nc(NN=Cc2ccc3c(c2)OCO3)n1` [Compound 67], the CC50 is above 100 µM.

As for `CCN(CC)c1nc(NN=Cc2ccc(F)cc2)nc(Nc2ccc([N+](=O)[O-])cc2)n1` [Compound 68], the CC50 is above 300 µM.

As to `CCCCN(CCCC)c1nc(NN=C(C)c2ccccc2)nc(Nc2ccc([N+](=O)[O-])cc2)n1` [Compound 74], the CC50 is above 100 µM.

For the molecule `CCN(CC)c1nc(NN=Cc2cc([N+](=O)[O-])ccc2OC)nc(Nc2cc(C)ccc2C)n1` [Compound 85], the CC50 turned out to be 209 µM.

Consider `Cc1[nH]c2ccccc2c1C=NNc1nc(Nc2ccccc2)nc(N2CCCCC2)n1` [Compound 88], for which the CC50 was above 100 µM.

For the molecule `C(=Cc1ccccc1)C=NNc1nc(NCc2ccccc2)nc(Nc2ccccc2)n1` [Compound 91], the CC50 was above 300 µM.

`COc1ccccc1C=NNc1nc(Nc2ccc([N+](=O)[O-])cc2)nc(Nc2ccc(C)c(C)c2)n1` [Compound 94]: the CC50 is above 300 µM.
